In US9556153B1, “JAK1 inhibitors” (Eli Lilly and Company, priority 2015, dated 2017):
pIC50: −log10 of the molar value.

Biological target: JAK1 (Homo sapiens, UniProt P23458)
Experiment: Phospho-STAT3 (Tyr705) ACUMEN H1975-JAK1 cell-based assay
Parameters: endogenous in cells
Settings: H1975 NSCLC cells, 4 hr; n=1; read-out: IC50, pSTAT3 (Tyr705) in H1975 cells
Procedure: Phospho-STAT3 (Tyr705) ACUMEN Protocol—H1975-JAK1 Cell-Based Assay
An H1975-JAK1 cellular assay is used to confirm the potency of test compounds in NSCLC cells in which the STAT3 pathway is activated by autocrine IL-6 loop. […]
On Day 2, perform the following steps sequentially: wash 2 times with 100 μL PBS; add 50 μL of secondary antibody (1:1000; Ab2° goat anti-mouse IgG); incubate for 1 hour at RT in the dark; wash 2 times with 100 μL PBS; add 100 μL of Propidium Iodide (1:1000 in PBS from commercial solution) containing RNAse (50 μg/mL in PBS); seal plates with transparent film and incubate at RT for 2 hours before reading; read on Acumen Explorer (set parameter based on positive and negative well). […]

Sequence of JAK1 (P23458 whole entry): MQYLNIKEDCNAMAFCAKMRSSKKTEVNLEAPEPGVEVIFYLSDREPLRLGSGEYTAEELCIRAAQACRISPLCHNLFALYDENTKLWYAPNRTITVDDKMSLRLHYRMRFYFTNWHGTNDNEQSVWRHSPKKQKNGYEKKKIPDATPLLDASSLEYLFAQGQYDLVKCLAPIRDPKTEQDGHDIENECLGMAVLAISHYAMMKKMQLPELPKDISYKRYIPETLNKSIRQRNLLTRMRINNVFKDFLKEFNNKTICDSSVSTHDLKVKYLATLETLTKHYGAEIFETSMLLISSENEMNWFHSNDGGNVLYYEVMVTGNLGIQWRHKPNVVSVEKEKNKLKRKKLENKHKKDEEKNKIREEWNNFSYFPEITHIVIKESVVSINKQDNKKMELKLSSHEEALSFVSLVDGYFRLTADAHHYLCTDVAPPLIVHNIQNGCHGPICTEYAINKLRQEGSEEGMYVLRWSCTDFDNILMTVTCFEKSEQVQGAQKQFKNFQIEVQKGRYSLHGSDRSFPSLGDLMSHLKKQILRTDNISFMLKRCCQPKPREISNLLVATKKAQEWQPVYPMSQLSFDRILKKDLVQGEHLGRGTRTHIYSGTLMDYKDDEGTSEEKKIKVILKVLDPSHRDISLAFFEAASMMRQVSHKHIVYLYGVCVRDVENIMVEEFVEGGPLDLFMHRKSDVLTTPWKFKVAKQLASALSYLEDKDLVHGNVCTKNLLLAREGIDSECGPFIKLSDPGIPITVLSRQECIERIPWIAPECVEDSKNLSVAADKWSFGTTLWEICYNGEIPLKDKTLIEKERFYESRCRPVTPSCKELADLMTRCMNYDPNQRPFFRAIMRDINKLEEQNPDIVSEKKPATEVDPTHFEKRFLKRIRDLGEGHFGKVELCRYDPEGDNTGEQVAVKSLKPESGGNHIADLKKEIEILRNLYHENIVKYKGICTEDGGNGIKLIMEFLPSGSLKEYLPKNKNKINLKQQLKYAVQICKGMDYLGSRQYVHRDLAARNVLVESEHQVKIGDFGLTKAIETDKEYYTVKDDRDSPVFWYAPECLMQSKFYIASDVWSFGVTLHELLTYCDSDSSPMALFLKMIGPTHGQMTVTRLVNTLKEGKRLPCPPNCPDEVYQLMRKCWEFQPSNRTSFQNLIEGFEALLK

pIC50: 6.53
Structure (SMILES): Cc1cc(Nc2cc(O[C@H]3CC[C@@H](NC[C@@H](O)C(F)(F)F)CC3)cc3c2ncn3C)nn1C [Example 1, (2R)-3-{[cis-4-({4-[(1,5-Dimethyl-1H-pyrazol-3-yl)amino]-1-methyl-1H-benzimidazol-6-yl}oxy)cyclohexyl]amino}-1,1,1-trifluoropropan-2-ol]
